Series [1] can be described thus: Storage stability of the powder at room temperature. The series is classed as physicochemical. To be noted: stored at room temperature for a long period of time. From the text: This compound is a powdery material having a yellowish color immediately after the production thereof. It gradually changes its color into brown. […] This is because a decomposition product, which is difficultly soluble in water, has been formed during the storage of the compound. So, it is not considered that the compound has properties suitable for formulating into a phamaceutical preparation.
2,3-(methylenedioxy)-5-methyl-7-hydroxy-8-ethoxy-benzo[c]phenanthridinium hydrogen sulfate (compound A-0), wherein the acid residue X^- is a hydrogen sulfate ion HSO4^-, is a compound according to the invention, and can be obtained as yellow powder. […] A 0.5 µM aqueous solution of 2,3-(methylenedioxy)-5-ethyl-7-hydroxy-8-methoxy-benzo[c]phenanthridinium chloride, wherein the acid residue X^- is a chloride ion Cl^-, has a pH of 4.3. On the other hand, a 0.5 µM aqueous solution of 2,3-(methylenedioxy)-5-methyl-7-hydroxy-8-methoxy-benzo[c]phenanthridinium hydrogen sulfate according to the invention, wherein the acid residue X^- is a hydrogen sulfate ion HSO4^-, has a pH of 3.9. […] There are no disadvantages in the pharmaceutical activities of such compounds when they have the form of hydrogen salts such as hydrogen sulfate salts. Therefore, the hydrogen salt compounds are practically useful as medicines in view of the enhanced stability thereof.

Series [2] relates to HeLa S3. The experiment in a line: Growth inhibition activity against tumor cells (Methylene Blue staining). Format: cell-based. To be noted: Homo sapiens. As to the method: (§1) Various tumor cells were cultured at 37°C for 24 hours in 5% gaseous carbon dioxide, and then subjected to an action of a test drug for 2-4 days. After that, the cells were stained with 0.05% Methylene Blue. The pigment were extracted from the stained cells. The growth inhibition rate of the cells was determined based on absorbance of the extracted pigment at 660 nm, and the 50% growth inhibitory concentration (IC50) was calculated.
(§2) In this table, the abbreviated expressions have the following tumor cells: HeLa S3 = carcinoma colli; MMI = ovarian cancer; SHIN-3 = ovarian cancer; N-231 = small cell lung cancer; Lu-130 = small cell lung cancer; Nakajima = gastric cancer; and the expression "n.t." represents "not tested". These tests were conducted according to a simultaneous comparison test method, except the case of HeLa S3.

For series [3], the system named is Lu-130. Described as above. The series is classed as cell-based. As to the method: as §1, §2
Series [4] has as its system N-231. Described as above. Format: cell-based. As to the method: as §1, §2
In series [5] the test system is SHIN-3. The description is as above. The series is classed as cell-based. As to the method: as §1, §2
For series [6], the system named is MMI. The description is as above. The series is classed as cell-based. As to the method: as §1, §2
Series [7] deals with Nakajima. The description is as above. The series is classed as cell-based. To be noted: Nakajima = gastric cancer; test drug for 2-4 days. The method, then:
as §1, §2

Series [8] relates to platelet aggregation caused by platelet activation factor (PAF) in platelet-rich plasma (PRP). The series is described as follows: Inhibition activity on platelet aggregation (serotonin release, anti-PAF activity). The series is classed as cell-based, Japanese albino rabbits. To be noted: Oryctolagus cuniculus, PAF 10^-7 M, serotonin release inhibition rate; for inhibition at 25 µg/mL: Concentration 25 µg/ml; for inhibition at 50 µg/mL: Concentration 50 µg/ml; for inhibition at 100 µg/mL: Concentration 100 µg/ml. As to the method: Platelet-rich plasma (PRP) was collected from Japanese albino rabbits (weighing 3-4 kg). As a platelet aggregation inducer, platelet activation factor (PAF) was used in a final concentration of 10^-7 M. A test drug was added to PRP. After incubation for a definite period of time, PAF was added to cause a platelet aggregation reaction. The reaction was terminated with EDTA. After a centrifugation, the supernatant was removed to obtain platelet precipitates. Distilled water was added to the platelet precipitates, whereby the serotonin remained in the platelet was reacted with an orthophthalaldehyde reagent to form a serotonin-orthophthaladehyde condensate. The condensate was measured at an excited wavelength of 360 nm and at a measurement wavelength of 475 nm. Anti-PAF activity of the test drug was determined by the following equation. Serotonin release inhibition rate (%) =((Test drug + PAF) value - PAF value)/(Blank value - PAF value)x 100 [formula] In the equation, the expression "value" stands for "serotonin value".

The mark [9] stands for this setting: Lu-130 = small cell lung cancer, test drug for 2-4 days, read-out: IC50.
[10] abbreviates: N-231 = small cell lung cancer, test drug for 2-4 days, read-out: IC50.
Where [11] appears, read: SHIN-3 = ovarian cancer, test drug for 2-4 days, read-out: IC50.
Setting [12] is: MMI = ovarian cancer, test drug for 2-4 days, read-out: IC50.

Where a name gives a salt, the structure may show the parent alone. Read-outs that look alike come from different tables or passages of the source.

Regarding `COc1ccc2c(c[n+](C)c3c4cc5c(cc4ccc23)OCO5)c1O` [2,3-(methylenedioxy)-5-methyl-7-hydroxy-8-methoxy-benzo[c]phenanthridinium chloride], the stability on storage result in series [1] was “gradually decomposed”.
With `COc1ccc2c(c[n+](C)c3c4cc5c(cc4ccc23)OCO5)c1O` [Compound A-0, 2,3-(methylenedioxy)-5-methyl-7-hydroxy-8-methoxy-benzo[c]phenanthridinium hydrogen sulfate salt], the IC50 (as a rule, the concentration that gives 50% inhibition) was found to be 0.15 µg/mL in series [2] (HeLa S3); 0.055 µg/mL in series [3]; 0.036 µg/mL in series [4]; 0.192 µg/mL in series [5]; 0.12 µg/mL in series [6].
In the case of `CC[n+]1cc2c(O)c(OC)ccc2c2ccc3cc4c(cc3c21)OCO4` [Compound A-1, 2,3-(methylenedioxy)-5-ethyl-7-hydroxy-8-methoxy-benzo[c]phenanthridinium hydrogen sulfate salt], the concentration for half-maximal inhibition (IC50) was found to be 0.177 µg/mL in series [2] (HeLa S3 = carcinoma colli, test drug for 2-4 days, not part of the simultaneous comparison test, read-out: IC50); 0.426 µg/mL in series [7]; 0.25 µg/mL in series [3] (setting [9]); 0.04 µg/mL in series [4] (setting [10]); 0.17 µg/mL in series [5] (setting [11]); 0.165 µg/mL in series [6] (setting [12]). In addition, the inhibition (in general, the share of the control response that was lost under treatment) at 12.5 µg/mL in series [8] (Concentration 12.5 µg/ml) turned out to be 25.2%. The compound also registered an inhibition at 25 µg/mL in series [8] of 49.6%. In addition, the inhibition at 50 µg/mL in series [8] was 74.1%. Further, 100 µg/mL produced 96.5% inhibition in series [8].
Consider `CCC[n+]1cc2c(O)c(OC)ccc2c2ccc3cc4c(cc3c21)OCO4` [Compound A-2, 2,3-(methylenedioxy)-5-(n-propyl)-7-hydroxy-8-methoxy-benzo[c]phenanthridinium hydrogen sulfate salt], for which the half-inhibitory concentration (IC50) in series [7] stood at 0.777 µg/mL; in series [3] (setting [9]) it was 0.108 µg/mL; in series [4] (setting [10]) it was 0.085 µg/mL; in series [5] (setting [11]) it was 0.414 µg/mL; in series [6] (setting [12]) it was 0.273 µg/mL.
In turn, `CC[n+]1cc2c(O)c(OC)ccc2c2ccc3ccccc3c21.O=S(=O)([O-])O` [Compound A-3, 5-ethyl-7-hydroxy-8-methoxy-benzo[c]phenanthridinium hydrogen sulfate salt] showed an IC50 in series [2] (HeLa S3) of 0.69 µg/mL.
Regarding `COc1ccc2c(c[n+](C)c3c4ccccc4ccc23)c1O.O=S(=O)([O-])O` [Compound A-4, 5-methyl-7-hydroxy-8-methoxy-benzo[c]phenanthridinium hydrogen sulfate salt], the IC50 in series [2] (HeLa S3) was 0.26 µg/mL; in series [3], 0.051 µg/mL; in series [4], 0.062 µg/mL; in series [5], 0.155 µg/mL; in series [6], 0.262 µg/mL. This compound also gave an inhibition at 25 µg/mL in series [8] of 10.9%. Further, 50 µg/mL produced 26.5% inhibition in series [8]. Further, in series [8], 100 µg/mL produced 46.4% inhibition.

The values above are taken from EP0487930B1, “Benzo[C]phenanthridinium derivatives” (NIPPON KAYAKU KABUSHIKI KAISHA, priority 1990, dated 1992).
